Results on 1 compound are retold here after PMC10560236, “A protein kinase C α and β inhibitor blunts hyperphagia to halt renal function decline and reduces adiposity in a rat model of obesity-driven type 2 diabetes” (Scientific Reports, 2023).

One data set has as its target PKCα (Homo sapiens, UniProt P17252). Description: Z'-Lyte recombinant enzyme assay, PKCα. Type of data set: biochemical. As to the method:
(§1) Half maximal inhibitory concentrations of Cmpd 1 were determined by Z’-Lyte biochemical assays (Life Technologies SelectScreen™ Kinase Profiling Services, Thermo Fisher Scientific). Kinome selectivity was determined at 1 μM Cmpd 1 concentration against a panel of 119 kinases. The original kinome tree in Fig. 1b was taken from Ref.[68].

Data set [1] in a line: 4-day pharmacokinetic study with chow dosing. It is filed as in vivo, rat. The settings on record: ZSF1 obese rats, chow dosing approx. 50 mpk/day, corrected for plasma protein binding. How it is done:
Three male 12-week old ZSF1 obese rats were fed control or 0.744 g/kg Cmpd 1 chow for 4 days. Food consumption was estimated by measuring food provided versus food remaining in the hopper. Blood was collected through tail vein from each animal at 9 a.m. and 4 p.m. 2 days after chow dosing started, and at 9 a.m. four days after chow dosing started, for PK determination. Plasma protein binding of Cmpd 1 was measured by equilibrium dialysis of the in vitro fraction unbound of Cmpd 1 at a concentration of […] in plasma from pooled male and female CD-1 mice. Plasma was centrifuged and supernatant was analyzed by liquid chromatography–tandem mass spectrometry to detect Cmpd 1 (York Bioanalytical Solutions; York, UK).

A further data set addresses PKCθ (Homo sapiens, UniProt Q04759). Description: Z'-Lyte recombinant enzyme assay, PKCθ. Type of data set: biochemical. How it is done: as §1
The target of another data set is PKCη (Homo sapiens, UniProt P24723). In words: Z'-Lyte recombinant enzyme assay, PKCη. It is filed as biochemical. As to the method:
as §1

The subject of a further data set is ZSF1 obese rats. In words: 7-day food consumption and body weight study, Cmpd 1 chow, ZSF1 obese rats. Type of data set: in vivo, rat. The settings on record: 7 days. From the text: To evaluate food consumption in different rat strains, cohorts of 10 male ZSF1 obese rats, 8 male ZSF1 lean littermate rats, and 10 age-matched male Sprague Dawley (SD) rats were divided into two groups and fed chow with or without 0.744 g/kg Cmpd 1 (Cmpd 1 chow) for 7 days.

The target of a further data set is T1, PKCε (Homo sapiens, UniProt Q02156).
T1 sequence (Q02156 1-737): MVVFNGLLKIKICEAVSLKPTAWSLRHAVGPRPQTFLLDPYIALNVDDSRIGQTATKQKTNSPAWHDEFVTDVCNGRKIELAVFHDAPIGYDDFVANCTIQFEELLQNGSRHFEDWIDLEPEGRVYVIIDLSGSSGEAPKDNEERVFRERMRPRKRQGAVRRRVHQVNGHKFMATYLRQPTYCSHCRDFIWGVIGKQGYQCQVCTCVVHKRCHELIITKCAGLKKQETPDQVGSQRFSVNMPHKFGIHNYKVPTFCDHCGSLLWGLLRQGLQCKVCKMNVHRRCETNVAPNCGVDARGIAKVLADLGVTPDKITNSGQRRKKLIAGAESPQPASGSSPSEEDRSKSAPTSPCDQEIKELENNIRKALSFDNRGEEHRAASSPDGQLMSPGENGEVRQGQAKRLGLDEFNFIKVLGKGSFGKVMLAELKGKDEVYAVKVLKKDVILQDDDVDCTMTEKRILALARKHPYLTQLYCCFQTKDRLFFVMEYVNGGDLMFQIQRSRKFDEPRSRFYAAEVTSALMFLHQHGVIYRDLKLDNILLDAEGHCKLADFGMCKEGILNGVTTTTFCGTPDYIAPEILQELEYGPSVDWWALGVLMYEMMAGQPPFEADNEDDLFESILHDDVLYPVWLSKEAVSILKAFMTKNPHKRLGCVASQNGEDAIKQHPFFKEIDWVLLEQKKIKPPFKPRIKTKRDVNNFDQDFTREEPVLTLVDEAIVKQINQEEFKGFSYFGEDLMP
In words: Z'-Lyte recombinant enzyme assay, PKCε. It is filed as biochemical. As to the method:
as §1

Another data set deals with PKCα/β. In words: In vivo kinase occupancy profiling of spleens (probe-based chemoproteomics). On the set-up: species or system rat. The settings on record: Cmpd 1 chow-dosed ZSF1 obese rats; only PKCα/β from over 200 detectable kinases. How it is done:
In vivo kinase profiling Spleens from 22–23 week old ZSF1 obese male rats provided no drug Chow or Cmpd 1 chow (n = 2 each) were snap frozen, pulverized, and approximately 100–150 mg of each sample were sent to ActiveX for analysis using a probe-based chemoproteomics platform to measure the fraction of kinase bound versus unbound by an ATP-competitive inhibitor. A kinase bound by an ATP-competitive inhibitor such as Cmpd 1 will be less accessible to a covalent ATP probe, and will consequently have a reduced peak in quantitative mass spectrometry of the tryptic fragment corresponding to its active site pulled down by the covalent biotinylated ATP probe. Lysates from n = 2 animals for each group were combined for the analysis.

A further data set concerns panel of 119 kinases. Description: Kinome selectivity profiling. Type of data set: biochemical. The settings on record: 1 μM Cmpd 1, panel of 119 kinases. As to the method: as §1

Chain of PKCη (P24723 whole entry): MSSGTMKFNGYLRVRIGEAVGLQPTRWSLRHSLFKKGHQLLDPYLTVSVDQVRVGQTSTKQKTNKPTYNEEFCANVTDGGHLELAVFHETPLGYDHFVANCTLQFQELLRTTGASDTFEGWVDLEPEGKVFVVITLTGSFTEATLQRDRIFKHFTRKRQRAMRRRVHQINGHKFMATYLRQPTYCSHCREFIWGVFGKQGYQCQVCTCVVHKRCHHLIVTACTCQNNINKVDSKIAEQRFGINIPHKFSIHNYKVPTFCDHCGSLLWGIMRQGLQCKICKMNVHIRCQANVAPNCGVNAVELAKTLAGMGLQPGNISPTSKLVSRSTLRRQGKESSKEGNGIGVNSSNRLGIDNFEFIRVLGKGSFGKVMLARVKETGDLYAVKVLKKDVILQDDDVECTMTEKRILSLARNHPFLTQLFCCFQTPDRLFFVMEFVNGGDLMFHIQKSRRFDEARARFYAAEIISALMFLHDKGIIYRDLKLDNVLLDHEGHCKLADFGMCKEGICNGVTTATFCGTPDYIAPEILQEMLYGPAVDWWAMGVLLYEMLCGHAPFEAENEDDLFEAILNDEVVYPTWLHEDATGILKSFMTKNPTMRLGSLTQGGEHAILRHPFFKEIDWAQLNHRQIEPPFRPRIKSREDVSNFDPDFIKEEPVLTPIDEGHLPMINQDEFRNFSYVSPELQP
Chain of PKCθ (Q04759 whole entry): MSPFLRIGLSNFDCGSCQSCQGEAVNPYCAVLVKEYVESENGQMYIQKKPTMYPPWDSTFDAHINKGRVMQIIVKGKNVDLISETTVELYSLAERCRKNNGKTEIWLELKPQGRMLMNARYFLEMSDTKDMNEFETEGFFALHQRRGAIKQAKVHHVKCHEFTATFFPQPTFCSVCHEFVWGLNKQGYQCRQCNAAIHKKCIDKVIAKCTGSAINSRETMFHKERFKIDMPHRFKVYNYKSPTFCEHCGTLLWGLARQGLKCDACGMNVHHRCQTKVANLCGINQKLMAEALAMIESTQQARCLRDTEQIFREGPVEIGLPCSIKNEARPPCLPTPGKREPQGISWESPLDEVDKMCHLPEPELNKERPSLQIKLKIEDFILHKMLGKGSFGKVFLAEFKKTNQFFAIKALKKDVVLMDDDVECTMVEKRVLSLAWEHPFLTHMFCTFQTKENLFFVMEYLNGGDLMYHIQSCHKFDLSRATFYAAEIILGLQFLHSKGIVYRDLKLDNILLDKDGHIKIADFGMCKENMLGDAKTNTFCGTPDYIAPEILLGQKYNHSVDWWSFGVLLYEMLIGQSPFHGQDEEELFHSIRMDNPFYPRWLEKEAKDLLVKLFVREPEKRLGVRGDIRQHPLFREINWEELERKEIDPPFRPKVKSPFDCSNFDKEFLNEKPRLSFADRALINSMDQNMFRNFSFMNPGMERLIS

Regarding `Cc1ncc(F)c(Nc2n[nH]c3c2CN(C(=O)N2C[C@@H](C)N(CC4CCOCC4)C[C@@H]2C)C3(C)C)n1` [Cmpd 1, 5-[(2S,5R)-2,5-dimethyl-4-(tetrahydro-2H-pyran-4-ylmethyl)piperazin-l-yl]carbonyl-N-(5-fluoro-2-methylpyrimidin-4-yl)-6,6-dimethyl-1,4,5,6-tetrahydropyrrolo[3,4-c]pyrazol-3-amine], the 50% inhibitory concentration (IC50) (commonly the concentration that inhibits the measured activity by half) came out at 2 nM at PKCα, 28 nM at PKCθ, 1520 nM on PKCη and 623 nM at PKCε. The “Free drug concentration in serum, evening” value in data set [1] (4 p.m.) is about 400 nM. In data set [1] (9 a.m.), the “Free drug concentration in serum, morning” value was “roughly 700 nM”. The Average food consumption in the data set on ZSF1 obese rats is reported as 24 g/day. In addition, the Body weight change result in the data set with ZSF1 obese rats is listed as “lost weight”. The “Reduction in food consumption versus no-drug chow” value in the data set on ZSF1 obese rats was found to be 37%. For the same compound, the “Kinase occupancy in spleen” value in the data set on PKCα/β is over 90%. Also, the Kinome selectivity entry in the data set on panel of 119 kinases is listed as “good selectivity”.
